Assay type in all cases: biochemical
Experiment [1] has as its target T1, MAGL (Homo sapiens, UniProt Q99685).
T1 construct: Proteomes (human prefrontal cortex or cell membrane fractions); from tissue
T1 sequence (Q99685 1-303): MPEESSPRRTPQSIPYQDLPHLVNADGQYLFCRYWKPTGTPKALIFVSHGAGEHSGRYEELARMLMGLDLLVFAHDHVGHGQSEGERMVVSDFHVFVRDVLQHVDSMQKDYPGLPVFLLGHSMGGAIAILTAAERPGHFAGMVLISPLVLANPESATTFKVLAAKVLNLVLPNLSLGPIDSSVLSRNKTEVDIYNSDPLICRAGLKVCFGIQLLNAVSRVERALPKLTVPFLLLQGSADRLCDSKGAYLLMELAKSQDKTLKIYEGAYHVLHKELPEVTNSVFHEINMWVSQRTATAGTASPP
In words: In vitro competitive activity-based protein profiling (FP-Rh or HT-01 probe, gel-based). Also on record: IC50 MGLL PC3 (Human, μM) / IC50 MGLL PFC (Human, μM): scale not given here. The settings on record: for % Inh MGLL PC3 (Human, μM) / % Inh MGLL PFC (Human, μM): concentration not given (μM); for % Inh MGLL PFC (Human, μM): prefrontal cortex (PFC) proteome. The protocol:
(§1) In Vitro Competitive Activity-Based Protein Profiling.
(§2) Proteomes (human prefrontal cortex or cell membrane fractions) (50 μL, 1.0 mg/mL total protein concentration) were preincubated with varying concentrations of inhibitors at 37° C. After 30 min, FP-Rh or HT-01 (1.0 μL, 50 μM in DMSO) was added and the mixture was incubated for another 30 min at room temperature. Reactions were quenched with SDS loading buffer (15 μL-4×) and run on SDS-PAGE.

Experiment [2] addresses T2, MGLL (Mus musculus, UniProt O35678).
T2 construct: Brain; from tissue; host or cells: mouse brain proteome
T2 sequence (O35678 1-303): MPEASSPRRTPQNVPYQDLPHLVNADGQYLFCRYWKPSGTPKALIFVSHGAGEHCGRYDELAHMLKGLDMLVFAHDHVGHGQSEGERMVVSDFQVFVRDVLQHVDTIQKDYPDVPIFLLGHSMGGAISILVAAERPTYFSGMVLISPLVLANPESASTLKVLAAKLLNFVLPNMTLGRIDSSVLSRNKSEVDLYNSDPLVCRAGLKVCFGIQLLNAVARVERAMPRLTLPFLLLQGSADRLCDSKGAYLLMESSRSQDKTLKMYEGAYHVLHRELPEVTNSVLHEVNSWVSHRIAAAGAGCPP
In words: In vitro competitive activity-based protein profiling, mouse brain proteome (MGLL). Particulars: for % Inh MGLL Brain (Mouse, μM): concentration not given (μM). On the set-up: IC50 MGLL Brain (Mouse, μM): scale not given here.

The target in experiment [3] is T3, ABHD6 (Mus musculus, UniProt Q8R2Y0).
T3 construct: Brain; from tissue; host or cells: mouse brain proteome
T3 sequence (Q8R2Y0 1-336): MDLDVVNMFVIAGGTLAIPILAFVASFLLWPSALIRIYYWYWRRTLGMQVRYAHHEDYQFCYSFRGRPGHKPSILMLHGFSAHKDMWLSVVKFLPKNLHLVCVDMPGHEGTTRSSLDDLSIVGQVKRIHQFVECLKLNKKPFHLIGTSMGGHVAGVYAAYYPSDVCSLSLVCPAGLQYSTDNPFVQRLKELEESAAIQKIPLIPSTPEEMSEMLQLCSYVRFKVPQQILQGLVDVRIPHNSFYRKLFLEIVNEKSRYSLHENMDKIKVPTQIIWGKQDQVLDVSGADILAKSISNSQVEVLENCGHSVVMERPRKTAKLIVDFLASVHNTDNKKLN
In words: In vitro competitive activity-based protein profiling, mouse brain proteome (ABHD6). Particulars: mouse brain proteome; concentration not given (μM). The protocol: [The source words this procedure for another target and reports this target under the same test.] as §1, §2

Where only a bound is given, the exact number is not on record here.

With `CN(Cc1ccc(C(F)(F)F)cc1N1CCC(N2CCC[C@H]2C(=O)O)CC1)C1(C)CCN(C(=O)OC(C(F)(F)F)C(F)(F)F)CC1` [Example 163, (1-(2-(((1-(((1,1,1,3,3,3-Hexafluoropropan-2-yl)oxy)carbonyl)-4-methylpiperidin-4-yl)(methyl)amino)methyl)-5-(trifluoromethyl)phenyl)piperidin-4-yl)-L-proline], the “% Inh MGLL PC3 (Human, μM)” value in experiment [1] (PC3 cell proteome) is “### (### is ≥75%)”. Moreover, in experiment [1] (PC3 cell proteome, read-out: IC50 MGLL PC3 (Human)), the IC50 was less than 100 nM. Moreover, in experiment [2], the “% Inh MGLL Brain (Mouse, μM)” value was “### (### is ≥75%)”. In experiment [3], the “% Inh ABHD6 Brain (Mouse, μM)” value was “# (# is ≤25%)”.

On to `O=C(O)CN1CC2CC1CN2c1cc(C(F)(F)F)ccc1CN1CC2(CCN(C(=O)OC(C(F)(F)F)C(F)(F)F)CC2)C1` (stereo not shown) [Example 127, 2-(5-{2-[(7-{[(1,1,1,3,3,3-Hexafluoropropan-2-yl)oxy]carbonyl}-2,7-diazaspiro[3.5]nonan-2-yl)methyl]-5-(trifluoromethyl)phenyl}-2,5-diazabicyclo[2.2.1]heptan-2-yl)acetic acid], for which the “% Inh MGLL PFC (Human, μM)” value in experiment [1] was “### (### is ≥75%)”. In addition, the “% Inh MGLL Brain (Mouse, μM)” value in experiment [2] is on record as “### (### is ≥75%)”. For the same molecule, the “% Inh ABHD6 Brain (Mouse, μM)” value in experiment [3] is on record as “### (### is ≥75%)”.

As to `CC1(C(=O)O)CCCN(c2cc(CN3CC4(CCN(C(=O)OC(C(F)(F)F)C(F)(F)F)CC4)C3)cc(C(F)(F)F)c2)C1` (stereo not drawn) [Example 114, l-(3-((7-(((1,1,1,3,3,3-Hexafluoropropan-2-yl)oxy)carbonyl)-2,7-diazaspiro[3,5]nonan-2-yl)methyl)-5-(trifluoromethyl)phenyl)-3-methylpiperidine-3-carboxylic acid], the “% Inh MGLL PFC (Human, μM)” value in experiment [1] is given as “### (### is ≥75%)”. Also, the “% Inh MGLL Brain (Mouse, μM)” value in experiment [2] is recorded as “### (### is ≥75%)”. Moreover, the “% Inh ABHD6 Brain (Mouse, μM)” value in experiment [3] is on record as “# (# is ≤25%)”.

For `O=C(OC(C(F)(F)F)C(F)(F)F)N1CCC2(CCCN2C(=O)c2ccc(Cl)cc2)CC1` [Example 13, 1,1,1,3,3,3-Hexafluoropropan-2-yl 1-(4-chlorobenzoyl)-1,8-diazaspiro[4.5]decane-8-carboxylate], the “% Inh MGLL PFC (Human, μM)” value in experiment [1] is “### (### is ≥75%)”. Further, in experiment [2], the “IC50 MGLL Brain (Mouse, μM)” value is recorded as “* * *” and the “% Inh MGLL Brain (Mouse, μM)” value is on record as “### (### is ≥75%)”. Also, the “% Inh ABHD6 Brain (Mouse, μM)” value in experiment [3] is reported as “### (### is ≥75%)”.

As to `O=C(O)[C@@H]1CCCN(c2cc(CN3CC4(CCN(C(=O)OC(C(F)(F)F)C(F)(F)F)CC4)C3)cc(C(F)(F)F)c2)C1` [Example 105, (R)-1-(3-((7-(((1,1,1,3,3,3-Hexafluoropropan-2-yl)oxy)carbonyl)-2,7-diazaspiro[3,5]nonan-2-yl)methyl)-5-(trifluoromethyl)phenyl) piperidine-3-carboxylic acid], in experiment [1], the “% Inh MGLL PFC (Human, μM)” value was “### (### is ≥75%)”. Further, the “% Inh MGLL Brain (Mouse, μM)” value in experiment [2] is on record as “### (### is ≥75%)”. The “% Inh ABHD6 Brain (Mouse, μM)” value in experiment [3] is “### (### is ≥75%)”.

Regarding `O=C(OC(C(F)(F)F)C(F)(F)F)N1CCC2(CCCN2Cc2cc(Cl)cc(C3(C(=O)O)CCCC3)c2)CC1` [Example 134, l-{3-Chloro-5-[(8-{[(1,1,1,3,3,3-hexafluoropropan-2-yl)oxy]carbonyl}-1,8-diazaspiro[4.5]decan-1-yl)methyl]phenyl}cyclopentane-1-carboxylic acid], the “% Inh MGLL PC3 (Human, μM)” value in experiment [1] (PC3 cell proteome) is listed as “### (### is ≥75%)”. Besides, the “% Inh MGLL Brain (Mouse, μM)” value in experiment [2] is “### (### is ≥75%)”. Further, the “% Inh ABHD6 Brain (Mouse, μM)” value in experiment [3] was “# (# is ≤25%)”.

As to `CN(Cc1ccccc1C1(C(=O)O)CCCC1)C1(C)CCN(C(=O)OC(C(F)(F)F)C(F)(F)F)CC1` [Example 141, 1-(2-{[(1-{[(1,1,1,3,3,3-Hexafluoropropan-2-yl)oxy]carbonyl}-4-methylpiperidin-4-yl)(methyl)amino]methyl}phenyl)cyclopentane-1-carboxylic acid], the “% Inh MGLL PC3 (Human, μM)” value in experiment [1] (PC3 cell proteome) is listed as “### (### is ≥75%)”. Further, the “% Inh MGLL Brain (Mouse, μM)” value in experiment [2] is given as “### (### is ≥75%)”. For the same molecule, the “% Inh ABHD6 Brain (Mouse, μM)” value in experiment [3] was “# (# is ≤25%)”.

On to `O=C(O)C1CCN(Cc2cc(CN3CCC4(CC3)CCN(C(=O)OC(C(F)(F)F)C(F)(F)F)C4)ccc2Cl)CC1` [Example 224, l-(2-Chloro-5-((2-(((1,1,1,3,3,3-hexafluoropropan-2-yl)oxy)carbonyl)-2,8-diazaspiro[4.5]decan-8-yl)methyl)benzyl)piperidine-4-carboxylic acid], for which the “% Inh MGLL PFC (Human, μM)” value in experiment [1] is “# (# is ≤25%)”. The “% Inh MGLL Brain (Mouse, μM)” value in experiment [2] is “## (## is between 25 and 75%)”. Besides, the “% Inh ABHD6 Brain (Mouse, μM)” value in experiment [3] is on record as “# (# is ≤25%)”.

Regarding `CC(C)(C#Cc1cc(C(F)(F)F)ccc1CN1CCCC12CCN(C(=O)OC(C(F)(F)F)C(F)(F)F)CC2)C(=O)O` [Example 5, 4-(2-((8-(((1,1,1,3,3,3-Hexafluoropropan-2-yl)oxy)carbonyl)-1,8-diazaspiro[4.5]decan-1-yl)methyl)-5-(trifluoromethyl)phenyl)-2,2-dimethylbut-3-ynoic acid], in experiment [1] (PC3 cell proteome), the “IC50 MGLL PC3 (Human, μM)” value is given as “* * *” and the “% Inh MGLL PC3 (Human, μM)” value is recorded as “### (### is ≥75%)”. The “% Inh MGLL Brain (Mouse, μM)” value in experiment [2] was “### (### is ≥75%)”. The “% Inh ABHD6 Brain (Mouse, μM)” value in experiment [3] is listed as “# (# is ≤25%)”.

Take `O=C(O)CN1CC2CC1CN2c1cc(CN2CC3(CCN(C(=O)OC(C(F)(F)F)C(F)(F)F)CC3)C2)cc(C(F)(F)F)c1` (stereo not shown) [Example 129, 2-(5-{3-[(7-{[(U,l,3,3,3-Hexafluoropropan-2-yl)oxy]carbonyl}-2,7-diazaspiro[3.5]nonan-2-yl)methyl]-5-(trifluoromethyl)phenyl}-2,5-diazabicyclo[2.2.1]heptan-2-yl)acetic acid]: in experiment [1], the “% Inh MGLL PFC (Human, μM)” value is “## (## is between 25 and 75%)”. Also, the “% Inh MGLL Brain (Mouse, μM)” value in experiment [2] is “### (### is ≥75%)”. Moreover, in experiment [3], the “% Inh ABHD6 Brain (Mouse, μM)” value is listed as “### (### is ≥75%)”.

Regarding `CN(Cc1ccc(C(F)(F)F)cc1N1CCC(C(=O)O)CC1)C1(C)CCN(C(=O)OC(C(F)(F)F)C(F)(F)F)CC1` [Example 14, 1-(2-(((1-(((1,1,1,3,3,3-Hexafluoropropan-2-yl)oxy)carbonyl)-4-methylpiperidin-4-yl)(methyl)amino)methyl)-5-(trifluoromethyl)phenyl)piperidine-4-carboxylic acid], the “IC50 MGLL PC3 (Human, μM)” value in experiment [1] (PC3 cell proteome) is recorded as “* * *”. Besides, in experiment [1], the “% Inh MGLL PFC (Human, μM)” value was “### (### is ≥75%)”. Also, in experiment [2], the “% Inh MGLL Brain (Mouse, μM)” value was “### (### is ≥75%)”. Further, the “% Inh ABHD6 Brain (Mouse, μM)” value in experiment [3] is listed as “### (### is ≥75%)”.

Consider `O=C(O)C1CCN(c2cc(CN3CC4(CCN(C(=O)OC(C(F)(F)F)C(F)(F)F)CC4)C3)cc(C(F)(F)F)c2)C1` (stereo not drawn) [Example 104, l-(3-((7-(((1,1,1,3,3,3-Hexailuoropropan-2-yl)oxy)carbonyl)-2,7-diazaspiro[3.5]nonan-2-yl)methyl)-5-(trifluoromethyl)phenyl) pyrrolidine-3-carboxylic acid], for which, in experiment [1], the “% Inh MGLL PFC (Human, μM)” value was “### (### is ≥75%)”. For the same molecule, the “% Inh MGLL Brain (Mouse, μM)” value in experiment [2] is recorded as “### (### is ≥75%)”. The “% Inh ABHD6 Brain (Mouse, μM)” value in experiment [3] is on record as “### (### is ≥75%)”.

On to `O=C(O)CN1CC2(CCN(c3cc(C(F)(F)F)ccc3CN3CCCC34CCN(C(=O)OC(C(F)(F)F)C(F)(F)F)CC4)CC2)C1` [Example 157, 2-(7-(2-((8-(((1,1,1,3,3,3-Hexafluoropropan-2-yl)oxy)carbonyl)-1,8-diazaspiro[4.5]decan-1-yl)methyl)-5-(trifluoromethyl)phenyl)-2,7-diazaspiro[3.5]nonan-2-yl)acetic acid], for which, in experiment [1], the “% Inh MGLL PFC (Human, μM)” value is “### (### is ≥75%)”. Also, in experiment [2], the “% Inh MGLL Brain (Mouse, μM)” value is on record as “### (### is ≥75%)”. Moreover, the “% Inh ABHD6 Brain (Mouse, μM)” value in experiment [3] is listed as “# (# is ≤25%)”.

One may read the IC50 as the concentration that gives 50% inhibition.

For the origin of these results see patent US11161856B2 (H. Lundbeck A/S, priority 2017, dated 2021).
